Results: US8535731B2, “Use of extracts of the Cassia alata plant” (BASF Beauty Care Solutions France S.A.S., priority 2000, dated 2013)

Test system: human keratinocytes
Test: Inhibition of apoptosis induced by growth factor deficiency, cell count and BrdU ELISA of cytoplasmic DNA fragments
Format: cell-based
Settings: 30 ng/ml, percent of control
Experimental: The ability of the plant extracts of Cassia alata to prevent apoptosis induced by a deficiency of growth factors in human skin cells was investigated. The test was conducted in vitro on human fibroblasts and human keratinocytes. The human cells were cultivated in a nutrient medium (DMEM=Dulbecco […] from Life Technologie S.a.r.l.) containing 10% of foetal calf serum (from Dutcher). Bromodeoxyuridine (BrdU) was added to this nutrient medium. It was incorporated in the DNA and was subsequently used to detect the DNA fragments in the cytoplasm. After two days' incubation, the nutrient medium was replaced by nutrient medium (DMEM) with no foetal calf serum. The active substance to be tested was added. […] For comparison, a cell sample was incubated without any active substance to be tested (quantities and concentrations shown in Tables 5 and 6).
After incubation for one or two days at 37° C., the cells were recovered by trypsination using the Dunnebacke and Zitcer method described in Cell and Tissue Culture, Ed.: J. Paul, Churchill Livingstone, 1975, p. […] After the trypsin treatment, the cells were centrifuged and counted. The BrdU content in DNA fragments from the cytoplasm was then determined by the ELISA Test (ELISA Kit from Roche). […]

## EGF: known growth factor Epidermal Growth Factor, polypeptide of 53 amino acids
  Cell counting: 121%
  Content of DNA fragments in the cytoplasm: 32%
